# Measured values from US8399440B2, “Disease modifying anti-arthritic activity of 2-methoxyestradiol” (EntreMed, Inc., priority 2006, dated 2013).
# Test system: Arthrogen Collagen MAb-Induced Arthritis
# Test: Arthrogen collagen MAb-induced arthritis (Arthrogen-CIA model of RA)
# Assay type: in vivo, Mouse (Balb/C)
# Conditions: Study SMP05-046; either drug alone (2ME2 10 or 100 mg/kg/d PO; MTX 0.1 or 1 mg/kg/d IP)
smiles,measurement,value
"CN(Cc1cnc2nc(N)nc(N)c2n1)c1ccc(C(=O)N[C@@H](CCC(=O)O)C(=O)O)cc1 [MTX, methotrexate, reference compound]",pathology in the liver,No pathology
